What was measured:
Experiment in all cases: fluorogenic hydrolysis assay, crude supernatant
Format in all cases: biochemical
Settings in all cases: 150 µM substrate, 50 mM acetate buffer pH 4.5, 25 °C
endoglucanase A = target: T1, endoglucanase A (Aspergillus niger, UniProt A2R322)
T1 construct: gene eglA; codon-optimised gene secreted by Yarrowia lipolytica strain JMY4343; crude supernatant; 26 kDa on SDS-PAGE

endo-β-1,4-xylanase C = target: T2, endo-β-1,4-xylanase C (Aspergillus niger, UniProt A2QFV7)
T2 construct: gene xlnC; codon-optimised gene secreted by Yarrowia lipolytica strain JMY4510; crude supernatant

endo-β-1,4-xylanase B = target: T3, endo-β-1,4-xylanase B (Aspergillus niger, UniProt A2Q7I0)
T3 construct: gene xlnB; codon-optimised gene secreted by Yarrowia lipolytica strain JMY4346; crude supernatant; 22 kDa on SDS-PAGE
T3 sequence (A2Q7I0 19-225): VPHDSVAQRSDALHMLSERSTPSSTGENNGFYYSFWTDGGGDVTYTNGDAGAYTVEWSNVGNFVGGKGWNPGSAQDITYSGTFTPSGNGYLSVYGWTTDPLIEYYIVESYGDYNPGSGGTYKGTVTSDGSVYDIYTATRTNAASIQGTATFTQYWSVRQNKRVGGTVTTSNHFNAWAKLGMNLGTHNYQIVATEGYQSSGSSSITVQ

T1 sequence (A2R322 17-239): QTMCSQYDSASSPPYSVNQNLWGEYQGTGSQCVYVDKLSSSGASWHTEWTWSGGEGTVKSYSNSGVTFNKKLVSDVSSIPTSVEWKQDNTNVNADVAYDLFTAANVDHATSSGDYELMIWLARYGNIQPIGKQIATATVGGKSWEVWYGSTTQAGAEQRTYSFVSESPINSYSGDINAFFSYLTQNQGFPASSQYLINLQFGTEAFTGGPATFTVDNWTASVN

SMILES | fluorogenic hydrolysis assay, crude supernatant (endoglucanase A) | fluorogenic hydrolysis assay, crude supernatant (endo-β-1,4-xylanase C) | fluorogenic hydrolysis assay, crude supernatant (endo-β-1,4-xylanase B)
O=c1cc(CS(=O)(=O)O)c2cc(F)c(O[C@@H]3O[C@H](CO)[C@@H](O[C@@H]4O[C@H](CO)[C@@H](O)[C@H](O)[C@H]4O)[C@H](O)[C@H]3O)c(F)c2o1 [β-D-cellobioside-6,8-difluoro-7-hydroxycoumarin-4-methansulfonate] | JMY4343 (egla) displayed a low activity with this substrate | – | –
O=c1cc(CS(=O)(=O)O)c2cc(F)c(O[C@@H]3OC[C@@H](O[C@@H]4OC[C@@H](O)[C@H](O)[C@H]4O)[C@H](O)[C@H]3O)c(F)c2o1 [β-D-xylobioside-6,8-difluoro-7-hydroxycoumarin-4-methansulfonate] | – | The JMY4346 (xlnb) and JMY4510 (xlnc) strains exhibited similar levels of endo-β-1,4-xylanase activity | The JMY4346 (xlnb) and JMY4510 (xlnc) strains exhibited similar levels of endo-β-1,4-xylanase activity

Source: PMC5282883, “Droplet-based microfluidic high-throughput screening of heterologous enzymes secreted by the yeast Yarrowia lipolytica” (Microbial Cell Factories, 2017)
